This passage reports IC50 and half-life results from patent publication US10047087B2, “Substituted pyrazolo[1,5-A] pyridine as tropomyosin receptor kinase (TrK) inhibitors” (Dr. Reddy's Laboratories Ltd., priority 2011, dated 2018).

One data set addresses T1, TrkA kinase (Homo sapiens, UniProt P04629).
T1 construct: purchased Upstate, USA
Put plainly: In vitro TrkA inhibitory activity using TR-FRET assay. The format is biochemical. To be noted: 5 ng TrkA, 500 μM ATP. In outline:
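Kinase (5 ng) was preincubated with compound for 30 min at 20-35° C before adding 40 nM ULight poly GT and 500 μM ATP; stopped with EDTA after 30 min. Eu-anti-phosphotyrosine antibody (0.5 nM) was read at 615/665 nm with 1% DMSO final. Compounds showing >25% inhibition at 1 μM went to sigmoidal dose-response IC50 fitting.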
Background: In TR-FRET formats the signal depends on donor and acceptor labels being close together.

The nature of data set [1]: Metabolic stability using Human Liver Microsomes (HLM). The format is in vitro ADME. The note with it: pooled human liver microsomes, compound 1 μM, 0.3 mg/ml microsomal protein, 1 mM NADPH. The procedure:
Stability Protocol: Metabolic Stability Using Rat Liver Microsomes (RLM) and Human Liver Microsomes (HLM).
This assay was performed using pooled male rat liver microsomes (In-house prepared as per SOP), Pooled Human liver microsomes (XENOTECH; Batch No— H0630-1110189)). The 100 μl reaction contains the compounds at 1 μM, 0.3 mg/ml microsomal protein and both the co-factors (1 mM NADPH) in buffer and the mixture was incubated at different time points (0, 15, 30, 45, 60, & 90 minutes). The reaction was stopped by the addition of equal volume of acetonitrile containing internal standard (Telmesartin). The precipitated protein was removed by centrifugation and the supernatant were analyzed LC/MS-MS method. The percent parent compound remaining was quantified by analysis using following formula (% parent compound remaining=(peak area at Time x/peak area at T0)×100. The intrinsic clearance was calculated using the following formula. CLint,app: (0.693/in vitro t½)(incubation volume/mg of microsomal protein)(45 mg microsomal protein/gram of liver)(20^a g of liver/kg body weight) • a: 20 and 45 g of liver/kg of body weight were used for human and rat, respectively (Lu C et al., DMD, 2006). Bio-analysis: It was performed in Multiple Reaction Monitoring mode (negative mode) using Applied Biosystems API 4000 coupled to Agilent Technologies 1100 series HPLC on a reverse phase column (Zorbax Eclipse XDB C18, 50×4.6 mm, 5 μm). Celecoxib was used as internal standard both in in-vitro and in-vivo experiments. Mobile phase used 0.05% […] water and acetonitrile (10:90) with a flow rate of 0.6 ml/minute. The injection volume was kept as 10 μl.
(Liver microsomes are vesicles of endoplasmic reticulum, rich in cytochrome P450 enzymes.)

The mark [2] stands for this setting: read-out: TrkA inhibition in-vitro IC50.
The mark [3] stands for this setting: both bounds given in nm, read-out: TrkA inhibitory activity in-vitro IC50.

Read-outs that look alike come from different tables or passages of the source. A value given as a limit tells only on which side of the number the result lay.

T1 sequence (P04629 33-796): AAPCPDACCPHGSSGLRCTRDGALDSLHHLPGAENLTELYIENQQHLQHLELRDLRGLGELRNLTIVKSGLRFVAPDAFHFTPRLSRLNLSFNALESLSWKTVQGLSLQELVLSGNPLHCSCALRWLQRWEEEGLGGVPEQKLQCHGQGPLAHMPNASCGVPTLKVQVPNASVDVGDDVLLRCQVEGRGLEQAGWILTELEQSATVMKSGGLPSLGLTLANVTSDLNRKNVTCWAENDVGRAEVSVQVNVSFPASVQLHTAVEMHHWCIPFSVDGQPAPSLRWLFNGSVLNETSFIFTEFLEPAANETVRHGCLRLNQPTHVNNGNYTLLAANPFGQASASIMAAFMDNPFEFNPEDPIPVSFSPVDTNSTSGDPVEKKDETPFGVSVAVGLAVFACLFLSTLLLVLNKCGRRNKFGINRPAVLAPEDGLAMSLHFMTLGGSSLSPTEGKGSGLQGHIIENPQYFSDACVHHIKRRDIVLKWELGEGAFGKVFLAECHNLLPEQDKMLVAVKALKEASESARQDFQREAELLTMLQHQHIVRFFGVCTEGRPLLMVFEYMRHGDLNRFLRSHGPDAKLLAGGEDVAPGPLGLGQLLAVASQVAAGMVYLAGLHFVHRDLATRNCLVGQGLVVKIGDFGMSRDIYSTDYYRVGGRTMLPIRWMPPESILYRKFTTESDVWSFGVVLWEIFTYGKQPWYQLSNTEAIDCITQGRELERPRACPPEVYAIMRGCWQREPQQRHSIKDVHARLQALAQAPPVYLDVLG

In general, IC50 refers to the concentration that gives 50% inhibition. One may read the half-life as the time in which the quantity being followed falls by half. Take `CC(C)(C)S(=O)(=O)NC(=O)c1cnn2ccc(N3CCC[C@@H]3c3cc(F)ccc3OC3CCOC3)cc12` (stereo partly drawn) [Example 59, N-(tert-butylsulfonyl)-5-((2R)-2-(5-fluoro-2-((tetrahydrofuran-3-yl)oxy)phenyl)pyrrolidin-1-yl)pyrazolo[1,5-a]pyridine-3-carboxamide]: on TrkA kinase (setting [2]), the IC50 was at most 50 nM. Besides, in data set [1], the half-life at 1 μM is above 1.33 h.
For `CCN(C)S(=O)(=O)NC(=O)c1cnn2ccc(N3C[C@@H](F)C[C@@H]3c3cc(F)ccc3F)cc12` [Example 79, 5-((2R,4S)-2-(2,5-difluorophenyl)-4-fluoropyrrolidin-1-yl)-N-(N-ethyl-N-methylsulfamoyl) pyrazolo[1,5-a]pyridine-3-carboxamide] the same measures were at most 50 nM and above 1.33 h.
Regarding `CC(C)(C)S(=O)(=O)NC(=O)c1cnn2ccc(N3CCC[C@@H]3c3cc(F)cc(OC(F)F)c3)cc12` [Example 43, (R)-N-(tert-butylsulfonyl)-5-(2-(3-(difluoromethoxy)-5-fluorophenyl)pyrrolidin-1-yl) pyrazolo[1,5-a]pyridine-3-carboxamide], the IC50 at TrkA kinase (setting [3]) fell in the range of 100 to 500 nM. For the same compound, the half-life at 1 μM in data set [1] was above 1.33 h.
Consider `COCCOc1ccc(F)cc1[C@H]1CCCN1c1ccn2ncc(C(=O)NS(=O)(=O)C(C)(C)C)c2c1` [Example 65, (R)-N-(tert-butylsulfonyl)-5-(2-(5-fluoro-2-(2-methoxyethoxy)phenyl)pyrrolidin-1-yl)pyrazolo [1,5-a]pyridine-3-carboxamide], for which, on TrkA kinase (setting [2]), the IC50 was at most 50 nM. This compound gave a half-life at 1 μM in data set [1] above 1.33 h.
As for `CC1OCCC1S(=O)(=O)NC(=O)c1cnn2ccc(N3CCC[C@@H]3c3cc(F)ccc3F)cc12` (stereo partly drawn) [Example 24, 5-((R)-2-(2,5-difluorophenyl)pyrrolidin-1-yl)-N-((2-methyltetrahydrofuran-3-yl)sulfonyl)pyrazolo[1,5-a] pyridine-3-carboxamide], the half-maximal inhibitory concentration (IC50) on TrkA kinase (setting [3]) was in the range of 100 to 500 nM. Also, the half-life at 1 μM in data set [1] was above 1.33 h.
Consider `CN(C)S(=O)(=O)NC(=O)c1cnn2ccc(N3CCC[C@@H]3c3cc(F)ccc3F)cc12` [Example 76, (R)-5-(2-(2,5-difluorophenyl)pyrrolidin-1-yl)-N—(N, N-dimethylsulfamoyl)pyrazolo[1,5-a]pyridine-3-carboxamide], for which, at TrkA kinase (setting [2]), the half-inhibitory concentration (IC50) was at most 50 nM. For the same compound, the half-life at 1 μM in data set [1] is above 1.33 h.
On to `CCS(=O)(=O)NC(=O)c1cnn2ccc(N3CCC[C@@H]3c3cc(F)ccc3F)cc12` [Example 3, (R)-5-(2-(2,5-difluorophenyl)pyrrolidin-1-yl)-N-(ethylsulfonyl)pyrazolo[1,5-a]pyridine-3-carboxamide], for which, on TrkA kinase (setting [3]), the IC50 fell in the range of 100 to 500 nM. In data set [1], this compound returned a half-life at 1 μM above 1.33 h.
Consider `CC(C)(C)S(=O)(=O)NC(=O)c1cnn2ccc(N3CCC[C@@H]3c3cc(F)ccc3OCC3CC3)cc12` [Example 46, (R)-N-(tert-butylsulfonyl)-5-(2-(2-(cyclopropylmethoxy)-5-fluorophenyl)pyrrolidin-1-yl)pyrazolo[1,5-a]pyridine-3-carboxamide], for which the IC50 at TrkA kinase (setting [2]) lay in the range of 50 to 100 nM. In addition, in data set [1], the half-life at 1 μM was above 1.33 h.
On to `CC(C)S(=O)(=O)NC(=O)c1cnn2ccc(N3CCC[C@@H]3c3cc(F)ccc3F)c(F)c12` [Example 75, (R)-5-(2-(2,5-difluorophenyl)pyrrolidin-1-yl)-4-fluoro-N-(isopropylsulfonyl)pyrazolo[1,5-a]pyridine-3-carboxamide], for which, on TrkA kinase (setting [3]), the IC50 lay within 100 to 500 nM. Moreover, the half-life at 1 μM in data set [1] was above 1.33 h.
Consider `COc1ccc(S(=O)(=O)NC(=O)c2cnn3ccc(N4CCC[C@@H]4c4cc(F)ccc4F)cc23)cn1` [Example 26, (R)-5-(2-(2,5-difluorophenyl)pyrrolidin-1-yl)-N-((6-methoxypyridin-3-yl)sulfonyl) pyrazolo[1,5-a]pyridine-3-carboxamide], for which the IC50 at TrkA kinase (setting [2]) lay within 50 to 100 nM. In data set [1], this compound yielded a half-life at 1 μM above 1.33 h.
Consider `O=C(NS(=O)(=O)c1ccc2c(c1)OCO2)c1cnn2ccc(N3CCC[C@@H]3c3cc(F)ccc3F)cc12` [Example 35, (R)-N-(benzo[d][1,3]dioxol-5-ylsulfonyl)-5-(2-(2,5-difluorophenyl)pyrrolidin-1-yl)pyrazolo[1,5-a]pyridine-3-carboxamide], for which the IC50 at TrkA kinase (setting [2]) is 50 to 100 nM. The compound further showed a half-life at 1 μM in data set [1] above 1.33 h.
For `N#Cc1cccc(S(=O)(=O)NC(=O)c2cnn3ccc(N4CCC[C@@H]4c4cc(F)ccc4F)cc23)c1` [Example 4, (R)-N-((3-cyanophenyl)sulfonyl)-5-(2-(2,5-difluorophenyl)pyrrolidin-1-yl)pyrazolo[1,5-a]pyridine-3-carboxamide] the same measures were 50 to 100 nM and above 1.33 h.
For `CCN(C)S(=O)(=O)NC(=O)c1cnn2ccc(N3CCC[C@@H]3c3cc(F)ccc3F)cc12` [Example 77, (R)-5-(2-(2,5-difluorophenyl)pyrrolidin-1-yl)-N-(N-ethyl-N-methylsulfamoyl) pyrazolo[1,5-a]pyridine-3-carboxamide], the IC50 at TrkA kinase (setting [2]) is at most 50 nM. In data set [1], this compound displayed a half-life at 1 μM above 1.33 h.
